From patent US12559496B2, “Imidazopyrimidines as modulators of IL-17” (Janssen Pharmaceutica NV, priority 2020, dated 2026)

Experiments:
[1] = target: IL-17A(FLAG-Tagged): IL-17RA(His-Tagged) (Homo sapiens, UniProt Q16552, K93Q); assay: IL-17A(FLAG-Tagged): IL-17RA(His-Tagged) Binding Disruption Eu-HTRF Assay; conditions: disruption of IL-17A/IL-17RA binding; simple average if tested more than once
Procedure, shortened: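 Compound (22-point 2-fold series) was preincubated 1 h at rt with FLAG-IL-17A, then His-IL-17RA, Eu-anti-FLAG and D2-anti-His were added in PBS/0.01% Triton X-100 with 200 mM KF for 2 h at rt. The ratio of 665 and 620 nm intensities versus concentration was fitted to one-site competition for IC50.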

[2] = test system: IL-17A-induced G-CSF production in human normal keratinocytes (NHK); assay: NHK Assay: IL-17A-induced G-CSF production in human normal keratinocytes; format: cell-based; conditions: Homo sapiens, Keratinocyte, 24 h, IL-17A 5 ng/mL, 5% FBS, simple average if tested more than once
Procedure, shortened: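 Adult normal human keratinocytes treated 24 h at 37 °C with IL-17A (5 ng/mL final) pre-incubated 1 h at rt with titrated compound; 0.2% DMSO, 5% FBS. G-CSF in supernatant measured by HTRF against a standard curve to give IC50; viability checked by CellTiter-Glo.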

UniProt Q16552, sequence (Q16552 with tags, fused parts or gaps K93Q): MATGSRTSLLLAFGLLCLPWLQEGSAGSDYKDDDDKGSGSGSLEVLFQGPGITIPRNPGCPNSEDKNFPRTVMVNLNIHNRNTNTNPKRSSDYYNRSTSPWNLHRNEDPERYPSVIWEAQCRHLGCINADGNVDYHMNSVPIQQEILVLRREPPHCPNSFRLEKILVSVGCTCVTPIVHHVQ

| Compound | IC50 [1] | IC50 [2] |
| --- | --- | --- |
| O=C(CC1CC(F)(F)C1)N[C@@H](c1ccn2cc([C@@H](NC(=O)c3conc3CCC(F)(F)F)C3CCC(F)(F)CC3)nc2n1)C1CC1 [Example 26, N—((S)-(7-((R)-Cyclopropyl(2-(3,3-difluorocyclobutyl)acetamido)methyl)imidazo[1,2-a]pyrimidin-2-yl)(4,4-difluorocyclohexyl)methyl)-3-(3,3,3-trifluoropropyl)isoxazole-4-carboxamide] | 130 nM | 110 nM |
| O=C(CC1CC(F)(F)C1)N[C@H](c1ccn2cc([C@@H](NC(=O)c3conc3C3CC3)C3CCC(F)(F)CC3)nc2n1)C1CC1 [Example 27, 3-Cyclopropyl-N—((S)-(7-((S)-cyclopropyl(2-(3,3-difluorocyclobutyl)acetamido)methyl)imidazo[1,2-a]pyrimidin-2-yl)(4,4-difluorocyclohexyl)methyl)isoxazole-4-carboxamide] | 3800 nM | 2600 nM |
| O=C(CC1CC(F)(F)C1)N[C@H](c1ccn2cc([C@@H](NC(=O)c3ccnc(CC(F)(F)F)c3)C3CCC(F)(F)CC3)nc2n1)C1CC1 [Example 28, N—((S)-(7-((S)-Cyclopropyl(2-(3,3-difluorocyclobutyl)acetamido)methyl)imidazo[1,2-a]pyrimidin-2-yl)(4,4-difluorocyclohexyl)methyl)-2-(2,2,2-trifluoroethyl)isonicotinamide] | 5400 nM | 1200 nM |
| O=C(CC1CC(F)(F)C1)N[C@H](c1ccn2cc([C@@H](NC(=O)c3conc3CCC(F)(F)F)C3CCC(F)(F)CC3)nc2n1)C1CC1 [Example 29, N—((S)-(7-((S)-Cyclopropyl(2-(3,3-difluorocyclobutyl)acetamido)methyl)imidazo[1,2-a]pyrimidin-2-yl)(4,4-difluorocyclohexyl)methyl)-3-(3,3,3-trifluoropropyl)isoxazole-4-carboxamide] | 2300 nM | 2600 nM |
| O=C(CCC(F)(F)F)N[C@@H](c1ccn2cc([C@@H](NC(=O)c3conc3CCC(F)(F)F)C3CCC(F)(F)CC3)nc2n1)C1CC1 [Example 30, N—((S)-(7-((R)-Cyclopropyl(4,4,4-trifluorobutanamido)methyl)imidazo[1,2-a]pyrimidin-2-yl)(4,4-difluorocyclohexyl)methyl)-3-(3,3,3-trifluoropropyl)isoxazole-4-carboxamide] | 110 nM | 74 nM |
| O=C(CCC(F)(F)F)N[C@H](c1ccn2cc([C@@H](NC(=O)c3cnn(CC4CC4)n3)C3CCC(F)(F)CC3)nc2n1)C1CC1 [Example 31, N—((S)-(7-((S)-Cyclopropyl(4,4,4-trifluorobutanamido)methyl)imidazo[1,2-a]pyrimidin-2-yl)(4,4-difluorocyclohexyl)methyl)-2-(cyclopropylmethyl)-2H-1,2,3-triazole-4-carboxamide] | 3000 nM | > 20000 nM |
| O=C(CCC(F)(F)F)N[C@@H](c1ccn2cc([C@@H](NC(=O)c3ncnn3CC3CC3)C3CCC(F)(F)CC3)nc2n1)C1CC1 [Example 32, N—((S)-(7-((R)-Cyclopropyl(4,4,4-trifluorobutanamido)methyl)imidazo[1,2-a]pyrimidin-2-yl)(4,4-difluorocyclohexyl)methyl)-1-(cyclopropylmethyl)-1H-1,2,4-triazole-5-carboxamide] | 170 nM | 520 nM |
| O=C(CCC(F)(F)F)N[C@H](c1ccn2cc([C@@H](NC(=O)c3ncnn3CC3CC3)C3CCC(F)(F)CC3)nc2n1)C1CC1 [Example 33, N—((S)-(7-((S)-Cyclopropyl(4,4,4-trifluorobutanamido)methyl)imidazo[1,2-a]pyrimidin-2-yl)(4,4-difluorocyclohexyl)methyl)-1-(cyclopropylmethyl)-1H-1,2,4-triazole-5-carboxamide] | 8700 nM | > 20000 nM |
| O=C(CCC(F)(F)F)N[C@@H](c1ccn2cc([C@@H](NC(=O)c3cnn(CC4CC4)n3)C3CCC(F)(F)CC3)nc2n1)C1CC1 [Example 34, N—((S)-(7-((R)-Cyclopropyl(4,4,4-trifluorobutanamido)methyl)imidazo[1,2-a]pyrimidin-2-yl)(4,4-difluorocyclohexyl)methyl)-2-(cyclopropylmethyl)-2H-1,2,3-triazole-4-carboxamide] | 240 nM | 580 nM |
| CC(C)n1nccc1C(=O)N[C@H](c1nc2nc([C@H](NC(=O)CCC(F)(F)F)C3CC3)ccn2c1F)C1CCC(F)(F)CC1 [Example 35, N—((S)-(7-((R)-Cyclopropyl(4,4,4-trifluorobutanamido)methyl)-3-fluoroimidazo[1,2-a]pyrimidin-2-yl)(4,4-difluorocyclohexyl)methyl)-1-isopropyl-1H-pyrazole-5-carboxamide] | 810 nM | 950 nM |
| O=C(CCC(F)(F)F)N[C@@H](c1ccn2cc([C@@H](NC(=O)c3conc3C3CC3)C3CCC(F)(F)CC3)nc2n1)C1CC1 [Example 36, 3-Cyclopropyl-N—((S)-(7-((R)-cyclopropyl(4,4,4-trifluorobutanamido)methyl)imidazo[1,2-a]pyrimidin-2-yl)(4,4-difluorocyclohexyl)methyl)isoxazole-4-carboxamide] | 220 nM | 190 nM |

The next lines start with results.

| IC50 [1] | Compound | IC50 [2] |
| --- | --- | --- |
| 1400 nM | O=C(CCC(F)(F)F)N[C@H](c1ccn2cc([C@@H](NC(=O)c3conc3C3CC3)C3CCC(F)(F)CC3)nc2n1)C1CC1 [Example 37, 3-Cyclopropyl-N—((S)-(7-((S)-cyclopropyl(4,4,4-trifluorobutanamido)methyl)imidazo[1,2-a]pyrimidin-2-yl)(4,4-difluorocyclohexyl)methyl)isoxazole-4-carboxamide] | > 20000 nM |
| 160 nM | O=C(CCC(F)(F)F)N[C@@H](c1ccn2cc([C@@H](NC(=O)c3ccnc(CC(F)(F)F)c3)C3CCC(F)(F)CC3)nc2n1)C1CC1 [Example 48, N—((S)-(7-((R)-Cyclopropyl(4,4,4-trifluorobutanamido)methyl)imidazo[1,2-a]pyrimidin-2-yl)(4,4-difluorocyclohexyl)methyl)-2-(2,2,2-trifluoroethyl)isonicotinamide] | 170 nM |
| 390 nM | Cc1nonc1C(=O)N[C@H](c1cn2ccc([C@H](NC(=O)CC34CC(F)(C3)C4)C3CC3)nc2n1)C1CCC(F)(F)CC1 [Example 59, N—((S)-(7-((R)-Cyclopropyl(2-(3-fluorobicyclo[1.1.1]pentan-1-yl)acetamido)methyl)imidazo[1,2-a]pyrimidin-2-yl)(4,4-difluorocyclohexyl)methyl)-4-methyl-1,2,5-oxadiazole-3-carboxamide] | 990 nM |
| 380 nM | Cc1nonc1C(=O)N[C@H](c1cn2ccc([C@H](NC(=O)C[C@H](C)C(F)F)C3CC3)nc2n1)C1CCC(F)(F)CC1 [Example 60, N—((S)-(7-((R)-Cyclopropyl((S)-4,4-difluoro-3-methylbutanamido)methyl)imidazo[1,2-a]pyrimidin-2-yl)(4,4-difluorocyclohexyl)methyl)-4-methyl-1,2,5-oxadiazole-3-carboxamide] | 760 nM |
| 460 nM | Cc1nonc1C(=O)N[C@H](c1cn2ccc([C@H](NC(=O)C[C@H]3C[C@H](F)C3)C3CC3)nc2n1)C1CCC(F)(F)CC1 [Example 61, N—((S)-(7-((R)-Cyclopropyl(2-((1r,3S)-3-fluorocyclobutyl)acetamido)methyl)imidazo[1,2-a]pyrimidin-2-yl)(4,4-difluorocyclohexyl)methyl)-4-methyl-1,2,5-oxadiazole-3-carboxamide] | 2300 nM |
